Laboratory results published in PubChem BioAssay (NCI).
Converted amounts (≈) assume the structure as drawn.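 Following 48 hours of exposure in 96-well plates, responses at five concentrations were used to interpolate endpoints linearly. GI50: concentration for 50% inhibition of growth. TGI marks complete inhibition of growth.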

Experiments:
Experiment in all cases: NCI tumour cell line growth inhibition, 48 h
CAKI-1 renal = tested on: CAKI-1 renal
COLO 205 colon = tested on: COLO 205 colon
OVCAR-4 ovarian = tested on: OVCAR-4 ovarian
OVCAR-8 ovarian = tested on: OVCAR-8 ovarian
SF-295 CNS = tested on: SF-295 CNS
SNB-75 CNS = tested on: SNB-75 CNS
XF 498 CNS = tested on: XF 498 CNS
HS 578T breast = tested on: HS 578T breast
MDA-MB-231 breast = tested on: MDA-MB-231 breast
PC-3 prostate = tested on: PC-3 prostate
P388/ADR leukemia = tested on: P388/ADR leukemia

Compound | TGI (CAKI-1 renal) | TGI (COLO 205 colon) | TGI (OVCAR-4 ovarian) | TGI (OVCAR-8 ovarian) | TGI (SF-295 CNS) | TGI (SNB-75 CNS) | TGI (XF 498 CNS) | GI50 (CAKI-1 renal) | GI50 (COLO 205 colon) | GI50 (HS 578T breast) | TGI (HS 578T breast) | GI50 (MDA-MB-231 breast) | TGI (MDA-MB-231 breast) | GI50 (OVCAR-4 ovarian) | GI50 (OVCAR-8 ovarian) | GI50 (PC-3 prostate) | TGI (PC-3 prostate) | GI50 (SF-295 CNS) | GI50 (SNB-75 CNS) | TGI (P388/ADR leukemia)
NCCCCNCCCNC(=O)c1nc(-c2csc(CCN)n2)sc1Cl | > 100 µM | > 100 µM | > 100 µM | > 100 µM | > 100 µM | > 100 µM | > 100 µM |  |  |  |  |  |  |  |  |  |  |  |  | 
COc1cc(/C=C2/N=C(c3ccccc3)N(C3=NNC4(C(=O)N3)c3ccccc3-c3ccccc34)NC2=O)ccc1O | 75.1 µg/mL | > 150 µg/mL | 62.1 µg/mL | 45.5 µg/mL | 42.5 µg/mL | 45.8 µg/mL |  | 22.4 µg/mL (≈ 40.3 µM) | 55.2 µg/mL (≈ 99.2 µM) | 19.8 µg/mL (≈ 35.5 µM) | 42.5 µg/mL | 19.3 µg/mL (≈ 34.6 µM) | 44.5 µg/mL | 27.4 µg/mL (≈ 49.2 µM) | 24 µg/mL (≈ 43.2 µM) | 29.5 µg/mL (≈ 53 µM) | 79.6 µg/mL | 19.7 µg/mL (≈ 35.5 µM) | 23.4 µg/mL (≈ 42.1 µM) | 
Cn1cnc2c(sc3nc4ccccc4n32)c1=N | > 100 µM | > 100 µM | > 100 µM | > 100 µM | > 100 µM | 73.8 µM |  |  |  |  | > 100 µM |  | > 100 µM |  |  |  | > 100 µM |  |  | 
COc1cc(C2SCC(=O)N2c2ccc(Oc3ccc(Cl)cc3)c(Cl)c2)cc(OC)c1OC (stereo not given) | 33.6 µM | 36.6 µM | > 100 µM | 30.7 µM | 34.6 µM | 31.3 µM |  |  |  |  | 40.7 µM |  | 40.3 µM |  |  |  | 28.9 µM |  |  | 
O=C(NCCCNCCNC(=O)c1cc(-c2ccccc2)nc2ccccc12)c1cc(-c2ccccc2)nc2ccccc12 | 5.45 µM | 3.21 µM | 4.08 µM | 3.16 µM | 3.19 µM | 2.83 µM |  |  |  |  | 4.5 µM |  | 3.52 µM |  |  |  | 3.09 µM |  |  | 
CC(=O)Oc1ccc(C2COc3cc(OC(C)=O)c(OC(C)=O)cc3C2)cc1 (stereo not given) | 27.3 µM | 35.4 µM | 29.1 µM | 35.6 µM | 58.5 µM | 32.6 µM | 25.9 µM |  |  |  |  |  |  |  |  |  |  |  |  | > 53.6 µM
C=CC[C@@]1(C(=O)OC)[C@H](Sc2ccccc2)C1(C)C | > 100 µM | > 100 µM | > 100 µM | > 100 µM | > 100 µM | 80.8 µM |  |  |  |  | > 100 µM |  | > 100 µM |  |  |  | > 100 µM |  |  | 
CC(=O)N1CCN(C23OC4(N5CCN(C(C)=O)CC5)C5C6CC(C7C6C4C72)C53)CC1 (stereo not given) | > 100 µM | > 100 µM | > 100 µM | > 100 µM | > 100 µM | > 100 µM |  |  |  |  | > 100 µM |  | > 100 µM |  |  |  | > 100 µM |  |  | 
O=C1c2cccc3cccc(c23)C(=O)N1CCCNOCCONCCCN1C(=O)c2cccc3cccc(c23)C1=O | > 100 µM | > 100 µM | > 100 µM | > 100 µM | > 100 µM | > 100 µM |  |  |  |  | > 100 µM |  | > 100 µM |  |  |  | > 100 µM |  |  | 
C#CCn1c(=O)c(C#N)c(O)c2cc3ccccc3nc21 | > 100 µM | > 100 µM |  | > 100 µM | > 100 µM | > 100 µM | > 100 µM |  |  |  |  |  |  |  |  |  |  |  |  | > 100 µM
C=C(C)C1CC=C(C)C2(C1)OCC(C)(C)C(C)O2 (stereo not given) | 36.7 µM | 34.5 µM | 41.1 µM | 31.7 µM | 48.2 µM | 48.2 µM |  |  |  |  | > 100 µM |  | 46.3 µM |  |  |  | > 100 µM |  |  | 
COc1c(C)c(OC)c2c(c1O)[C@@H]1[C@@H]3Cc4c(OC)c(C)c(OC)c(O)c4[C@H](CNC(=O)c4cnc5ccccc5n4)N3[C@@H](C#N)[C@H](C2)N1C | > 0.0391 µM | 0.0114 µM | 0.00898 µM | 0.0212 µM | > 0.0294 µM | 0.00552 µM |  |  |  |  | 0.0192 µM |  | 0.032 µM |  |  |  | > 0.0556 µM |  |  | 
CC(=O)c1cc2c(s1)C(=O)c1ccccc1C2=O | 37 µM | 28.9 µM | 57 µM | 5.98 µM | 8.99 µM | 23.1 µM |  |  |  |  | > 67.6 µM |  | 41.8 µM |  |  |  | > 100 µM |  |  | 
CN(C)CCCOCCn1c2c(c3ccccc31)CCCC2 | 31.5 µM | 32.3 µM | 44.3 µM | 35.9 µM | 40.1 µM | 57.9 µM |  |  |  |  | 51.6 µM |  | 26.6 µM |  |  |  | 32.6 µM |  |  | 
CC(=Nc1ccncc1)C(C)=Nc1ccncc1 | 30.4 µM | 31 µM | 27.4 µM | > 100 µM | > 100 µM | > 100 µM |  |  |  |  | 98.9 µM |  | 62.6 µM |  |  |  | 38.9 µM |  |  | 
CCOC(=O)C(/C=N\C(=S)Nc1ccc(OCC)cc1)=C(/O)c1ccccc1 | > 100 µM | > 100 µM | > 100 µM | > 100 µM | > 100 µM | > 100 µM |  |  |  |  | > 100 µM |  | > 100 µM |  |  |  | > 100 µM |  |  | 

Compound | TGI (CAKI-1 renal) | TGI (COLO 205 colon) | TGI (OVCAR-4 ovarian) | TGI (OVCAR-8 ovarian) | TGI (SF-295 CNS) | TGI (SNB-75 CNS) | TGI (XF 498 CNS) | GI50 (CAKI-1 renal) | GI50 (COLO 205 colon) | GI50 (HS 578T breast) | TGI (HS 578T breast) | GI50 (MDA-MB-231 breast) | TGI (MDA-MB-231 breast) | GI50 (OVCAR-4 ovarian) | GI50 (OVCAR-8 ovarian) | GI50 (PC-3 prostate) | TGI (PC-3 prostate) | GI50 (SF-295 CNS) | GI50 (SNB-75 CNS) | TGI (P388/ADR leukemia)
Cc1cc(=O)oc2cc(O)ccc12 | > 100 µM | > 100 µM | > 100 µM | > 100 µM | > 100 µM | > 100 µM |  |  |  |  | > 100 µM |  | > 100 µM |  |  |  | > 100 µM |  |  | 
C[C@]12CC[C@@H]3c4ccc(OC(=O)c5ccccc5)cc4CC[C@H]3[C@@H]1CC[C@@H]2Oc1c2ccccc2nc2ccccc12 | 21.6 µM | > 50 µM | > 50 µM | 45 µM | > 50 µM | 18.2 µM |  |  |  |  | > 50 µM |  | 35.2 µM |  |  |  | 17.7 µM |  |  | 
Oc1ccc(CCc2cc(O)cc(O)c2)cc1 | > 100 µM | > 100 µM | > 100 µM | > 100 µM | > 100 µM | > 100 µM |  |  |  |  | > 100 µM |  | > 100 µM |  |  |  | > 100 µM |  |  | 
NNc1nncn1N | > 100 µM | > 100 µM | > 96.7 µM | > 100 µM | > 100 µM | > 100 µM |  |  |  |  | > 100 µM |  | > 100 µM |  |  |  | > 100 µM |  |  | 
[N-]=[N+]=Nc1ccc(CNc2cc(=O)[nH]c(=O)[nH]2)cc1 | > 100 µM | > 100 µM | > 100 µM | > 100 µM | > 100 µM | > 100 µM |  |  |  |  | > 100 µM |  | > 100 µM |  |  |  | > 100 µM |  |  | 
CC(=O)OCC=C(CCl)CCC(Br)C(C)(C)Br (mixture of isomers) | > 10 µM | > 10 µM | > 10 µM | > 10 µM | > 10 µM | > 10 µM |  |  |  |  | > 10 µM |  | > 10 µM |  |  |  | > 10 µM |  |  | 
Cc1sc2ccccc2[n+]1CCC(=O)O | > 100 µM | > 100 µM | > 100 µM | > 100 µM | > 100 µM | > 100 µM |  |  |  |  | > 100 µM |  | > 100 µM |  |  |  | > 100 µM |  |  | 
C[N+](C)(C)c1ncnc2c1ncn2C1CCCCO1 (stereo not given) | > 100 µM | > 100 µM | > 100 µM | > 100 µM | > 100 µM | > 100 µM |  |  |  |  | > 100 µM |  | > 100 µM |  |  |  | > 100 µM |  |  | 
CC1(COS(=O)(=O)OCC2(C)COS(=O)(=O)OC2)COS(=O)(=O)OC1 | > 100 µM | > 100 µM | > 100 µM | > 100 µM | > 100 µM | > 100 µM |  |  |  |  | > 100 µM |  | > 100 µM |  |  |  | > 100 µM |  |  | 
COc1cc2c(cc1OC)-c1c3c(cc4c1[C@@H](C2)N(C)CC4)OCO3 | 51.4 µM | 32.1 µM | 22.8 µM | 31.9 µM | 16.7 µM | 23.9 µM |  |  |  |  |  |  |  |  |  |  |  |  |  | 23.3 µM
O=c1oc2ccc(Cl)cc2cc1-c1cn2cc(Cl)ccc2n1 | > 100 µM | > 100 µM | > 100 µM | > 100 µM | > 100 µM | > 100 µM |  |  |  |  | > 68.5 µM |  | > 100 µM |  |  |  | > 100 µM |  |  | 
S=C(S)NCC1CCC(CNC(=S)S)CC1 (stereo not given) | 30.6 µM | > 100 µM | > 100 µM | 47.9 µM | > 100 µM | > 100 µM |  |  |  |  | > 100 µM |  | 70.1 µM |  |  |  | 37.5 µM |  |  | 
COc1cc2c(/C=C3/C(=O)N(c4ccccc4)c4ccccc43)c(Cl)[nH]c2cc1C | > 59.5 µM | 7.05 µM | 6.55 µM | > 31.6 µM | > 22.3 µM | 18.9 µM |  |  |  |  | > 100 µM |  | 27 µM |  |  |  | > 33.3 µM |  |  | 
O=c1[nH]c(Nc2cccc(Cl)c2)nc2nc[nH]c12 | > 100 µM | > 100 µM | > 100 µM | > 100 µM | > 100 µM | > 100 µM |  |  |  |  | > 100 µM |  | > 100 µM |  |  |  | > 100 µM |  |  | 
CC(C)N(C)C(=O)C12C3C4C1C1C2C3C41C#N (stereo not given) | > 100 µM | > 100 µM | > 100 µM | > 100 µM | > 100 µM | > 100 µM |  |  |  |  | > 100 µM |  | > 100 µM |  |  |  | > 100 µM |  |  | 
CCO/C(O)=C(/C(=N)N1CCCC1)C(=O)Nc1cccc(C(F)(F)F)c1 | > 100 µM | > 100 µM | > 100 µM | > 100 µM | > 100 µM | 85.1 µM |  |  |  |  | 70.6 µM |  | > 100 µM |  |  |  | > 100 µM |  |  | 
